Source: the kinase profiling compilation of Christmann-Franck et al. (2016)

Legend:
Assay in all cases: KINOMEscan competition binding
Conditions in all cases: compound 10.0 µM
CAMK1D (human) = CAMK1D (human) (UniProt Q8IU85)
MYLK3 (human) = MYLK3 (human) (UniProt Q32MK0)
CHEK2 (human) = CHEK2 (human) (UniProt O96017)
BLK (human) = BLK (human) (UniProt P51451)
NUAK1 (human) = NUAK1 (human) (UniProt O60285)
TEC (human) = TEC (human) (UniProt P42680)
NTRK3 (human) = NTRK3 (human) (UniProt Q16288)
EPHA2 (human) = EPHA2 (human) (UniProt P29317)
DYRK1B (human) = DYRK1B (human) (UniProt Q9Y463)
PIP4K2B (human) = PIP4K2B (human) (UniProt P78356)
SRPK3 (human) = SRPK3 (human) (UniProt Q9UPE1)
TSSK1B (human) = TSSK1B (human) (UniProt Q9BXA7)
DDR1 (human) = DDR1 (human) (UniProt Q08345)
ALK (human) = ALK (human) (UniProt Q9UM73)
EPHB6 (human) = EPHB6 (human) (UniProt O15197)
STK32B (human) = STK32B (human) (UniProt Q9NY57)
ACVR2B (human) = ACVR2B (human) (UniProt Q13705)
MAP2K2 (human) = MAP2K2 (human) (UniProt P36507)
MERTK (human) = MERTK (human) (UniProt Q12866)
CAMK2D (human) = CAMK2D (human) (UniProt Q13557)
MAPK11 (human) = MAPK11 (human) (UniProt Q15759)
TGFBR2 (human) = TGFBR2 (human) (UniProt P37173)
NEK11 (human) = NEK11 (human) (UniProt Q8NG66)
NIM1 (human) = NIM1 (human) (UniProt Q8IY84)
PAK6 (human) = PAK6 (human) (UniProt Q9NQU5)
CSNK1G2 (human) = CSNK1G2 (human) (UniProt P78368)
CDC2L2 (human) = CDC2L2 (human) (UniProt Q9UQ88)
CDK4 CCND1 (human) = CDK4 CCND1 (human) (UniProt P11802+P24385)
EPHA1 (human) = EPHA1 (human) (UniProt P21709)
ROCK2 (human) = ROCK2 (human) (UniProt O75116)
AAK1 (human) = AAK1 (human) (UniProt Q2M2I8)
EPHB2 (human) = EPHB2 (human) (UniProt P29323)
CDK2 (human) = CDK2 (human) (UniProt P24941)
EGFR (human) = EGFR (human) (UniProt P00533)
PRKD2 (human) = PRKD2 (human) (UniProt Q9BZL6)
BMPR2 (human) = BMPR2 (human) (UniProt Q13873)
STK33 (human) = STK33 (human) (UniProt Q9BYT3)
RPS6KB1 (human) = RPS6KB1 (human) (UniProt P23443)
RPS6KA3 KD1 (human) = RPS6KA3 KD1 (human) (UniProt P51812)
STK38 (human) = STK38 (human) (UniProt Q15208)

STK32B (human), sequence (Q9NY57 whole entry, looked up): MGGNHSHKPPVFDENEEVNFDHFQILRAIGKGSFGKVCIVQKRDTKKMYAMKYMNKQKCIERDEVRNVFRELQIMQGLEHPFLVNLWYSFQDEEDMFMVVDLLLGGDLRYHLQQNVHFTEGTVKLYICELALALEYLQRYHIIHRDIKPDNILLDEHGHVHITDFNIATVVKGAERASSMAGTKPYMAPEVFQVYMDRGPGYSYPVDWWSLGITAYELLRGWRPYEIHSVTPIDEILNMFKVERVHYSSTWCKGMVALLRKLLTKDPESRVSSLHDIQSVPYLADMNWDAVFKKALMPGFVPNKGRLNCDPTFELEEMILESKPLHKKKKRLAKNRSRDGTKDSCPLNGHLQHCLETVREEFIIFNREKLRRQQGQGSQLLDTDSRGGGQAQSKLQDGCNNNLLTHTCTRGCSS
CAMK1D (human), sequence (Q8IU85 whole entry, looked up): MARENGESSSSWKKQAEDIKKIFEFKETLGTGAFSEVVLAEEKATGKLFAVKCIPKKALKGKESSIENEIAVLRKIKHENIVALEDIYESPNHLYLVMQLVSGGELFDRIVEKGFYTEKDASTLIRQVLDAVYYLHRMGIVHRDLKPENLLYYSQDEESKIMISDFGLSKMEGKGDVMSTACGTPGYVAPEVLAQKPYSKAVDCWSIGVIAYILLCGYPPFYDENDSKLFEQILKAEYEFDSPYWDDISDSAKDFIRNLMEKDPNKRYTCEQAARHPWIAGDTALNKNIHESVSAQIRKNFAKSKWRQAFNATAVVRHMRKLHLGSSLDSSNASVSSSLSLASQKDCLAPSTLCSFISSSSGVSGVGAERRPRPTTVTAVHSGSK
CSNK1G2 (human), sequence (P78368 whole entry, looked up): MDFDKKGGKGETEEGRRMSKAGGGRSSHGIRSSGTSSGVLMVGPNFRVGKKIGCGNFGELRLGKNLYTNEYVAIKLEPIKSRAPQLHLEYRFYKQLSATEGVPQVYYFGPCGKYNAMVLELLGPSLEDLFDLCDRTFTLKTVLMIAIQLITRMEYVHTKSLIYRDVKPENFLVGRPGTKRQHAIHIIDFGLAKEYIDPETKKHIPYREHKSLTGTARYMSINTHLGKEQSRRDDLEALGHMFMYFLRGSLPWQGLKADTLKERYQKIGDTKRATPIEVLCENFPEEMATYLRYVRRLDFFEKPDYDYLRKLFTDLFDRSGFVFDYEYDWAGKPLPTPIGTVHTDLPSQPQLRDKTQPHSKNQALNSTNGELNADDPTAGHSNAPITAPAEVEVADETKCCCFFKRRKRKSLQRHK
ALK (human), sequence (Q9UM73 whole entry, looked up): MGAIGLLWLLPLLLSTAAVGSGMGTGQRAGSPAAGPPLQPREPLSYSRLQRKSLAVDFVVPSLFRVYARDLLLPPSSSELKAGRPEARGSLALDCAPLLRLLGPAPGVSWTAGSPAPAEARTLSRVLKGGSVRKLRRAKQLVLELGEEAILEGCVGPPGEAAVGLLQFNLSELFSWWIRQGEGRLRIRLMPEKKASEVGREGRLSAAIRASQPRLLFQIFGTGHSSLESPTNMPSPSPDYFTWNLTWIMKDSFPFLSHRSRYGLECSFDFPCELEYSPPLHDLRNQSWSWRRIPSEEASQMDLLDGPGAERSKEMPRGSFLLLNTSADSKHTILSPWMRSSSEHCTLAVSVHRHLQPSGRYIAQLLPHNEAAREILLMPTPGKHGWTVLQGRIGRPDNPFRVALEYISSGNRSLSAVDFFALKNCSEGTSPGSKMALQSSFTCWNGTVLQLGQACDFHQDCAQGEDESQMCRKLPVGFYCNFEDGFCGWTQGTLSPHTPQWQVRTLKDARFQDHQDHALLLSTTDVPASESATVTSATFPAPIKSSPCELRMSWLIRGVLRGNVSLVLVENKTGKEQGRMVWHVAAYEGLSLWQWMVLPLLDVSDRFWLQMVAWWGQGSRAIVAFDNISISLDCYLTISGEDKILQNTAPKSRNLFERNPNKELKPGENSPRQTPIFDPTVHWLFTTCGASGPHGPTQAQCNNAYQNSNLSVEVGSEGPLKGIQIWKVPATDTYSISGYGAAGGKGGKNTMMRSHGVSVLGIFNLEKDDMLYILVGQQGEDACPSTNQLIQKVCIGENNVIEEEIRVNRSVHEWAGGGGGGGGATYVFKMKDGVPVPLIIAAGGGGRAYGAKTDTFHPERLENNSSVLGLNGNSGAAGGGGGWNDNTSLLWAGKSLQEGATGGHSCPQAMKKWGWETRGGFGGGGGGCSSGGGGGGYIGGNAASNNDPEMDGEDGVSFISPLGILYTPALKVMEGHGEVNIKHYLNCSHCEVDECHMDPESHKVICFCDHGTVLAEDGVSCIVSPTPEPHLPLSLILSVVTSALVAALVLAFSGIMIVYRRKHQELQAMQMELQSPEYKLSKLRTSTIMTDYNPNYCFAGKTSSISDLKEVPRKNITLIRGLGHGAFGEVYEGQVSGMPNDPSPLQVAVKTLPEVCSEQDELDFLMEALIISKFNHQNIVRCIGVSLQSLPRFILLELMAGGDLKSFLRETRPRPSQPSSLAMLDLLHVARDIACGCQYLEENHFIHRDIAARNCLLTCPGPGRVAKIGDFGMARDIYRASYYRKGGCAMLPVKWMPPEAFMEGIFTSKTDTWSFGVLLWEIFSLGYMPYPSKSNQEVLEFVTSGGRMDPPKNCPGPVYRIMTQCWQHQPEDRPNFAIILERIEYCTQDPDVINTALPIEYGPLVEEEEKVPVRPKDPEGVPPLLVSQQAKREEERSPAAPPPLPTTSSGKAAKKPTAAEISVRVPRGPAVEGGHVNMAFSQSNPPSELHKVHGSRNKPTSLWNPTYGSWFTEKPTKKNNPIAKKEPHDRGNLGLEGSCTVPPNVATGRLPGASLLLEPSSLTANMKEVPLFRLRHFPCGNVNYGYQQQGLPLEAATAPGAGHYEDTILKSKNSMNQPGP
ROCK2 (human), sequence (O75116 whole entry, looked up): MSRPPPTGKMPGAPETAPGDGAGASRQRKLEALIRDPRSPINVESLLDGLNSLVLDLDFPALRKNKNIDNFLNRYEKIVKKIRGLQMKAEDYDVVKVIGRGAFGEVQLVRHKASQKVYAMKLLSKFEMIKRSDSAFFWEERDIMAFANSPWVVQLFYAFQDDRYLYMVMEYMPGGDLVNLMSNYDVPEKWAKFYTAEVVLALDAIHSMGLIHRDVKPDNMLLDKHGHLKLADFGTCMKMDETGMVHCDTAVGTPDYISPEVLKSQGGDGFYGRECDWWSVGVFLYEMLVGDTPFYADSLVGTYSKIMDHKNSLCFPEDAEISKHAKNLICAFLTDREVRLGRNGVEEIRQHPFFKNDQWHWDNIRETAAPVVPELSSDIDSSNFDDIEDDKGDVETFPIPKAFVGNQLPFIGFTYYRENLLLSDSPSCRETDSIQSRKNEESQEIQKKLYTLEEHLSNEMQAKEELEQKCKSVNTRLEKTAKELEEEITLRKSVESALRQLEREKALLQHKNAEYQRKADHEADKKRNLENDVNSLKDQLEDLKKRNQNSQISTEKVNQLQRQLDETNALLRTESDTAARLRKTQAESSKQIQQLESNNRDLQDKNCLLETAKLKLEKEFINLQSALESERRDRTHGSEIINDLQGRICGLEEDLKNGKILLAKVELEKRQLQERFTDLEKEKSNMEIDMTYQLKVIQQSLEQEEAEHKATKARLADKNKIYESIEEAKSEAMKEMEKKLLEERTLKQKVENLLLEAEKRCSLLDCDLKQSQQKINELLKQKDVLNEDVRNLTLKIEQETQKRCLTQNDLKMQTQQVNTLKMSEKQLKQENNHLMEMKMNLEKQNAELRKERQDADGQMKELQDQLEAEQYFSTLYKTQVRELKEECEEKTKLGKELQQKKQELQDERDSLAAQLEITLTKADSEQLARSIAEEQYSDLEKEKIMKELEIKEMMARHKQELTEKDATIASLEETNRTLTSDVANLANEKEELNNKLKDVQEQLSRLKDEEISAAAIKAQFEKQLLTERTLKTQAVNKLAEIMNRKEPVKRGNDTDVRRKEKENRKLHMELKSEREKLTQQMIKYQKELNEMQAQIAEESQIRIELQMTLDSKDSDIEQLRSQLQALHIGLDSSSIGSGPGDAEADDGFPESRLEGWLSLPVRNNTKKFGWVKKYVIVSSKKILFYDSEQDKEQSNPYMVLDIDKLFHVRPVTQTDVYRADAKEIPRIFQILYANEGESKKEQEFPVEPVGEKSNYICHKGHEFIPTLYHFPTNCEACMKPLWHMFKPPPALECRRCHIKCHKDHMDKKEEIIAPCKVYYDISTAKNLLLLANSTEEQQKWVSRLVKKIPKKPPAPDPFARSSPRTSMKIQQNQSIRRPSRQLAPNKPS
ACVR2B (human), sequence (Q13705 whole entry, looked up): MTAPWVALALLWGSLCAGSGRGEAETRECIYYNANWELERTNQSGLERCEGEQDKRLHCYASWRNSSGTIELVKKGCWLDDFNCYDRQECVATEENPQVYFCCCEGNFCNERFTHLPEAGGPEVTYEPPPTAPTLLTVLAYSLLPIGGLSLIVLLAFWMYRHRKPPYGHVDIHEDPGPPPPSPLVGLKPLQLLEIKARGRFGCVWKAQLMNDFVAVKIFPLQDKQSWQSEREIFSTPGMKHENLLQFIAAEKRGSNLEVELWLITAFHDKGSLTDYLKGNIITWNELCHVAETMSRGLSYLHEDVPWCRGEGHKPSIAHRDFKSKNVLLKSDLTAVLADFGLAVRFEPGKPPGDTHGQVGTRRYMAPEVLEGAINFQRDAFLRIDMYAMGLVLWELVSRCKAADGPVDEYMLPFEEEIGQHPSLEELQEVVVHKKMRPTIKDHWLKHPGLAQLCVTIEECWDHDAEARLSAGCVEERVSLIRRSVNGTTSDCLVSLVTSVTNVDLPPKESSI

Row | Structure (SMILES) | kinase still bound, per cent of control (CAMK1D (human)) [%] | kinase still bound, per cent of control (MYLK3 (human)) [%] | kinase still bound, per cent of control (CHEK2 (human)) [%] | kinase still bound, per cent of control (BLK (human)) [%] | kinase still bound, per cent of control (NUAK1 (human)) [%] | kinase still bound, per cent of control (TEC (human)) [%] | kinase still bound, per cent of control (NTRK3 (human)) [%] | kinase still bound, per cent of control (EPHA2 (human)) [%] | kinase still bound, per cent of control (DYRK1B (human)) [%] | kinase still bound, per cent of control (PIP4K2B (human)) [%] | kinase still bound, per cent of control (SRPK3 (human)) [%] | kinase still bound, per cent of control (TSSK1B (human)) [%] | kinase still bound, per cent of control (DDR1 (human)) [%] | kinase still bound, per cent of control (ALK (human)) [%] | kinase still bound, per cent of control (EPHB6 (human)) [%] | kinase still bound, per cent of control (STK32B (human)) [%] | kinase still bound, per cent of control (ACVR2B (human)) [%] | kinase still bound, per cent of control (MAP2K2 (human)) [%] | kinase still bound, per cent of control (MERTK (human)) [%] | kinase still bound, per cent of control (CAMK2D (human)) [%] | other results
1 | N#CCNC(=O)c1ccc(-c2ccnc(Nc3ccc(N4CCOCC4)cc3)n2)cc1 | 40 | 68 | 100 | 100 | 45 | 100 | 63 | 100 | 90 | 89 | 18 | 100 | 100 | 100 | 58 | 93 | 54 | 100 | 100 | 34 | kinase still bound, per cent of control (MAPK11 (human)): 100%; kinase still bound, per cent of control (TGFBR2 (human)): 89%; kinase still bound, per cent of control (NEK11 (human)): 100%; kinase still bound, per cent of control (NIM1 (human)): 100%; kinase still bound, per cent of control (PAK6 (human)): 100%; kinase still bound, per cent of control (CSNK1G2 (human)): 100%; kinase still bound, per cent of control (CDC2L2 (human)): 58%; kinase still bound, per cent of control (CDK4 CCND1 (human)): 13%; kinase still bound, per cent of control (EPHA1 (human)): 100%; kinase still bound, per cent of control (ROCK2 (human)): 0.7%; kinase still bound, per cent of control (AAK1 (human)): 3.9%; kinase still bound, per cent of control (EPHB2 (human)): 100%; kinase still bound, per cent of control (CDK2 (human)): 55%; kinase still bound, per cent of control (EGFR (human)): 100%; kinase still bound, per cent of control (PRKD2 (human)): 43%; kinase still bound, per cent of control (BMPR2 (human)): 100%; kinase still bound, per cent of control (STK33 (human)): 98%; kinase still bound, per cent of control (RPS6KB1 (human)): 100%; kinase still bound, per cent of control (RPS6KA3 KD1 (human)): 100%; kinase still bound, per cent of control (STK38 (human)): 59%
2 | C=CC(=O)Nc1cc(-n2c(=O)ccc3cnc4ccc(-c5cn[nH]c5)cc4c32)ccc1C | 86 | 100 | 87 | 2.4 | 11 | 6 | 93 | 85 | 1.8 | 73 | 68 | 87 | 67 | 100 | 54 | 100 | 21 | 83 | 100 | 36 | kinase still bound, per cent of control (MAPK11 (human)): 89%; kinase still bound, per cent of control (TGFBR2 (human)): 82%; kinase still bound, per cent of control (NEK11 (human)): 100%; kinase still bound, per cent of control (NIM1 (human)): 89%; kinase still bound, per cent of control (PAK6 (human)): 96%; kinase still bound, per cent of control (CSNK1G2 (human)): 94%; kinase still bound, per cent of control (CDC2L2 (human)): 100%; kinase still bound, per cent of control (CDK4 CCND1 (human)): 100%; kinase still bound, per cent of control (EPHA1 (human)): 94%; kinase still bound, per cent of control (ROCK2 (human)): 72%; kinase still bound, per cent of control (AAK1 (human)): 18%; kinase still bound, per cent of control (EPHB2 (human)): 100%; kinase still bound, per cent of control (CDK2 (human)): 84%; kinase still bound, per cent of control (EGFR (human)): 30%; kinase still bound, per cent of control (PRKD2 (human)): 89%; kinase still bound, per cent of control (BMPR2 (human)): 4.6%; kinase still bound, per cent of control (STK33 (human)): 100%; kinase still bound, per cent of control (RPS6KB1 (human)): 63%; kinase still bound, per cent of control (RPS6KA3 KD1 (human)): 69%; kinase still bound, per cent of control (STK38 (human)): 87%
3 | COc1cc(C(=O)N2CCC(N3CCN(C)CC3)CC2)ccc1Nc1ncc2c(n1)N(C)c1ccccc1C(=O)N2C | 69 | 100 | 66 | 97 | 47 | 100 | 100 | 92 | 94 | 100 | 72 | 60 | 100 | 13 | 31 | 100 | 100 | 99 | 100 | 28 | kinase still bound, per cent of control (MAPK11 (human)): 60%; kinase still bound, per cent of control (TGFBR2 (human)): 100%; kinase still bound, per cent of control (NEK11 (human)): 100%; kinase still bound, per cent of control (NIM1 (human)): 100%; kinase still bound, per cent of control (PAK6 (human)): 98%; kinase still bound, per cent of control (CSNK1G2 (human)): 100%; kinase still bound, per cent of control (CDC2L2 (human)): 82%; kinase still bound, per cent of control (CDK4 CCND1 (human)): 100%; kinase still bound, per cent of control (EPHA1 (human)): 100%; kinase still bound, per cent of control (ROCK2 (human)): 87%; kinase still bound, per cent of control (AAK1 (human)): 84%; kinase still bound, per cent of control (EPHB2 (human)): 100%; kinase still bound, per cent of control (CDK2 (human)): 100%; kinase still bound, per cent of control (EGFR (human)): 84%; kinase still bound, per cent of control (PRKD2 (human)): 59%; kinase still bound, per cent of control (BMPR2 (human)): 87%; kinase still bound, per cent of control (STK33 (human)): 10%; kinase still bound, per cent of control (RPS6KB1 (human)): 100%; kinase still bound, per cent of control (RPS6KA3 KD1 (human)): 77%; kinase still bound, per cent of control (STK38 (human)): 96%
